According to ChEMBL document CHEMBL1671659, “In vitro and in vivo properties of dihydrophthalazine antifolates, a novel family of antibacterial drugs” (Antimicrob Agents Chemother, 2009):
≈ marks a conversion by molar mass, not a printed value. Calls of active or inactive are those of the source. The rule behind the calls is not given here.

Columns and labels:
Mus musculus [1] = experiment: Hepatotoxicity in NMRI mouse assessed as single-cell necrosis at 400 mg/kg administered through oral gavage for 10 days; type: toxicity, organism-based; set-up: dose 400 mg/kg, route oral; conditions: in vivo, 240 h
Mus musculus [2] = experiment: Hepatotoxicity in NMRI mouse assessed as increase in liver weight at 400 mg/kg administered through oral gavage for 5 days; type: toxicity, organism-based; set-up: dose 400 mg/kg, route oral; conditions: in vivo, 120 h
Streptococcus pneumoniae [3] = experiment: Antibacterial activity against Streptococcus pneumoniae
Mus musculus [4] = experiment: Hepatotoxicity in NMRI mouse assessed as inflammatory infiltrates at 400 mg/kg administered through oral gavage for 5 days; type: toxicity, organism-based; set-up: dose 400 mg/kg, route oral; conditions: in vivo, 120 h
Enterococcus faecium [5] = experiment: Antibacterial activity against Enterococcus faecium; type: functional
Staphylococcus aureus [6] = experiment: Antibacterial activity against methicillin-resistant dfrB, dfrG-positive and dfrA-negative Staphylococcus aureus; type: functional
[7] = Cmax in NMRI mouse blood at 25 mg/kg administered through oral gavage measured after 7 hrs; type: ADME, organism-based; set-up: dose 25 mg/kg, route oral
Enterococcus faecium [8] = experiment: Antibacterial activity against Enterococcus faecium in presence of 250 ug/ml thymidine; type: functional
Mus musculus [9] = experiment: Hepatotoxicity in NMRI mouse assessed as increase in liver weight at 400 mg/kg administered through oral gavage for 10 days; type: toxicity, organism-based; set-up: dose 400 mg/kg, route oral; conditions: in vivo, 240 h
HeLa = experiment: Cytotoxicity against human HeLa cells; type: cell-based
Enterococcus faecium [10] = experiment: Antibacterial activity against vancomycin-sensitive dfrE, dfrF-negative and folA-positive Enterococcus faecium; type: functional
Enterococcus faecalis [11] = experiment: Antibacterial activity against vancomycin-sensitive dfrE, dfrF-positive and folA-negative Enterococcus faecalis; type: functional
[12] = Inhibition of trimethoprim-resistant Staphylococcus aureus Type S1 dihydrofolate reductase
[13] = system: Staphylococcus epidermidis; experiment: Antibacterial activity against methicillin, vancomycin-sensitive and trimethoprim-resistant Staphylococcus epidermidis BAS000635 harboring dfrC and dfrA genes; type: functional
Staphylococcus aureus [14] = experiment: Antibacterial activity against trimethoprim-resistant Staphylococcus aureus BAS003908 infected in NMRI mouse model of septicemia; type: functional
Staphylococcus aureus [15] = experiment: Antibacterial activity against vancomycin, trimethoprim, methicillin-resistant Staphylococcus aureus VRS1 harboring dfrA and dfrB genes; type: functional
Mus musculus [16] = experiment: Toxicity in po dosed NMRI mouse; type: organism-based; conditions: in vivo
Staphylococcus aureus [17] = experiment: Antibacterial activity against methicillin-resistant dfrB, dfrA-positive and dfrA within SCCmec-N1, dfrG-negative Staphylococcus aureus; type: functional
[18] = Inhibition of trimethoprim-sensitive Staphylococcus aureus DfrB type dihydrofolate reductase
Enterococcus faecalis [19] = experiment: Antibacterial activity against vancomycin-sensitive folA, dfrF-negative Enterococcus faecalis harboring A5T, K88N, F102Y mutation in dfrE gene; type: functional
Enterococcus faecium [20] = experiment: Antibacterial activity against vancomycin-resistant dfrE, dfrF-negative and folA-positive Enterococcus faecium; type: functional
Mus musculus [21] = experiment: Hepatotoxicity in NMRI mouse assessed as single-cell necrosis at 400 mg/kg administered through oral gavage for 5 days; type: toxicity, organism-based; set-up: dose 400 mg/kg, route oral; conditions: in vivo, 120 h
[22] = system: Staphylococcus epidermidis; experiment: Antibacterial activity against methicillin-sensitive dfrC-positive and dfrA, dfrD-negative Staphylococcus epidermidis; type: functional
[23] = Genotoxicity in Salmonella enterica serovar Typhimurium assessed as increase in number of bacterial revertant colonies by Ames test; type: toxicity; conditions: salmonella enterica subsp. enterica serovar typhimurium
Mycobacterium avium = experiment: Antibacterial activity against Mycobacterium avium assessed as inhibition of bacterial growth at <=4 ug/ml; type: functional; set-up: scale not given: the % may be the effect or the level left
[24] = Oral bioavailability in NMRI mouse; type: ADME, organism-based; conditions: in vivo
Enterococcus faecium [25] = experiment: Antibacterial activity against Enterococcus faecium in presence of 50 ug/ml thymidine; type: functional
Staphylococcus aureus [26] = experiment: Antibacterial activity against trimethoprim-resistant Staphylococcus aureus BAS003908; type: functional
Staphylococcus aureus [27] = experiment: Antibacterial activity against methicillin-sensitive dfrB-positive abd dfrA, dfrG-negative Staphylococcus aureus; type: functional
[28] = system: Staphylococcus epidermidis; experiment: Antibacterial activity against methicillin, vancomycin, trimethoprim-sensitive Staphylococcus epidermidis ATCC 14990 harboring dfrC gene; type: functional
Mus musculus [29] = experiment: Hepatotoxicity in NMRI mouse assessed as increase in mitosis at 400 mg/kg administered through oral gavage for 10 days; type: toxicity, organism-based; set-up: dose 400 mg/kg, route oral; conditions: in vivo, 240 h
Staphylococcus aureus [30] = experiment: Antibacterial activity against methicillin, vancomycin, trimethoprim-sensitive Staphylococcus aureus ATCC 29213 harboring dfrB gene; type: functional
Enterococcus faecalis [31] = experiment: Antibacterial activity against Enterococcus faecalis in presence of 250 ug/ml thymidine; type: functional
Staphylococcus aureus [32] = experiment: Antibacterial activity against trimethoprim-sensitive Staphylococcus aureus ATCC 29213 infected in NMRI mouse model of septicemia assessed as succumbed to infections at 1.6 mg/kg, iv; type: functional, organism-based; set-up: dose 1.6 mg/kg
Staphylococcus aureus [33] = experiment: Antibacterial activity against trimethoprim-sensitive Staphylococcus aureus ATCC 29213 infected in NMRI mouse model of septicemia; type: functional
Staphylococcus aureus [34] = experiment: Antibacterial activity against vancomycin, trimethoprim-sensitive and methicillin-resistant Staphylococcus aureus ATCC 43300 harboring dfrB gene; type: functional
Mus musculus [35] = experiment: Hepatotoxicity in NMRI mouse assessed as inflammatory infiltrates at 400 mg/kg administered through oral gavage for 10 days; type: toxicity, organism-based; set-up: dose 400 mg/kg, route oral; conditions: in vivo, 240 h
[36] = system: Staphylococcus epidermidis; experiment: Antibacterial activity against methicillin-resistant dfrC, dfrA-positive and dfrA within SCCmec-N1, dfrD-negative Staphylococcus epidermidis; type: functional
[37] = system: Staphylococcus epidermidis; experiment: Antibacterial activity against methicillin-sensitive dfrC, dfrA-positive and dfrD-negative Staphylococcus epidermidis; type: functional
Streptococcus pneumoniae [38] = experiment: Antibacterial activity against Streptococcus pneumoniae in presence of 50 ug/ml thymidine; type: functional
[39] = system: Staphylococcus epidermidis; experiment: Antibacterial activity against methicillin-sensitive dfrA, dfrD-negative Staphylococcus epidermidis harboring F98Y mutation in dfrC gene; type: functional
Dihydrofolate reductase = Dihydrofolate reductase (Staphylococcus aureus, UniProt P0A017, F99Y); experiment: Inhibition of trimethoprim-resistant Staphylococcus aureus DfrB type dihydrofolate reductase F98Y mutant
Staphylococcus aureus [40] = experiment: Antibacterial activity against methicillin-resistant dfrA within SCCmec-N1, dfrA and dfrG -negative Staphylococcus aureus harboring F98Y mutation in dfrB gene; type: functional
Enterococcus faecalis [41] = experiment: Antibacterial activity against Enterococcus faecalis in presence of 50 ug/ml thymidine; type: functional
Streptococcus pneumoniae [42] = experiment: Antibacterial activity against Streptococcus pneumoniae in presence of 250 ug/ml thymidine; type: functional
Staphylococcus aureus [43] = experiment: Antibacterial activity against trimethoprim-sensitive Staphylococcus aureus ATCC 29213 infected in NMRI mouse model of septicemia assessed as complete protection from infections at 3.1 mg/kg, iv; type: functional, organism-based; set-up: dose 3.1 mg/kg
Mus musculus [44] = experiment: Hepatotoxicity in NMRI mouse assessed as increase in mitosis at 400 mg/kg administered through oral gavage for 5 days; type: toxicity, organism-based; set-up: dose 400 mg/kg, route oral; conditions: in vivo, 120 h
[45] = AUC (0 to t) in NMRI mouse blood at 25 mg/kg administered through oral gavage after 7 hrs; type: ADME, organism-based; set-up: time < 7 hr, dose 25 mg/kg, route oral
Enterococcus faecalis [46] = experiment: Antibacterial activity against Enterococcus faecalis; type: functional
Staphylococcus aureus [47] = experiment: Antibacterial activity against trimethoprim-sensitive Staphylococcus aureus ATCC 29213; type: functional
Haemophilus influenzae [48] = experiment: Antibacterial activity against Haemophilus influenzae; type: functional
Haemophilus influenzae [49] = experiment: Antibacterial activity against Haemophilus influenzae in presence of 50 ug/ml thymidine
[50] = Tmax in NMRI mouse blood at 25 mg/kg administered through oral gavage measured after 7 hrs; type: ADME, organism-based; set-up: dose 25 mg/kg, route oral
Haemophilus influenzae [51] = experiment: Antibacterial activity against Haemophilus influenzae in presence of 250 ug/ml thymidine; type: functional

COc1ncc(C2c3ccccc3C=NN2C(=O)/C=C/c2cc(Cc3cnc(N)nc3N)cc(OC)c2OC)cn1 (stereo not given)
Activity (Mus musculus [1]): < 10%
Activity (Mus musculus [2]): < 10%
MIC (Streptococcus pneumoniae [3]): 64 µg/mL (≈ 116 µM)
Activity (Mus musculus [4]): < 10%
MIC (Enterococcus faecium [5]): 1 µg/mL (≈ 1.81 µM)
MIC (Staphylococcus aureus [6]): 32 µg/mL (≈ 57.9 µM)
Cmax [7]: 3240 ng/mL
MIC (Enterococcus faecium [8]): > 128 µg/mL
Activity (Mus musculus [9]): < 10%
IC50 (HeLa): 12 µM
MIC (Enterococcus faecium [10]): ≤ 0.25 µg/mL
MIC (Enterococcus faecalis [11]): > 128 µg/mL
IC50 [12]: 0.121 µM
MIC [13]: 4 µg/mL (≈ 7.24 µM)
ED50 (Staphylococcus aureus [14]): 3.1 mg/kg
MIC (Staphylococcus aureus [15]): 4 µg/mL (≈ 7.24 µM)
Activity (Mus musculus [16]): 400 mg/kg
MIC (Staphylococcus aureus [17]): 1 µg/mL (≈ 1.81 µM)
MIC (Staphylococcus aureus [17]; Staphylococcus aureus, read-out: MIC): 1 µg/mL (≈ 1.81 µM)
IC50 [18]: 0.0052 µM
MIC (Enterococcus faecalis [19]): 0.5 µg/mL (≈ 0.905 µM)
MIC (Enterococcus faecium [20]): 2 µg/mL (≈ 3.62 µM)
Activity (Mus musculus [21]): < 10%
MIC [22]: ≤ 0.25 µg/mL
Activity [23]: Non-toxic
Activity (Mycobacterium avium): 77%
bioavailability [24]: 25%
MIC (Enterococcus faecium [25]): ≥ 128 µg/mL
MIC (Staphylococcus aureus [26]): 0.5 µg/mL (≈ 0.905 µM)
MIC (Staphylococcus aureus [27]): ≤ 0.25 µg/mL
MIC [28]: 0.125 µg/mL (≈ 0.226 µM)
Activity (Mus musculus [29]): < 10%
MIC (Staphylococcus aureus [30]): 0.5 µg/mL (≈ 0.905 µM)
MIC (Enterococcus faecalis [31]): 1 µg/mL
Activity (Staphylococcus aureus [32]): inactive
ED50 (Staphylococcus aureus [33]): 1.6 mg/kg
MIC (Staphylococcus aureus [34]): 0.25 µg/mL (≈ 0.452 µM)
Activity (Mus musculus [35]): < 10%
MIC [36]: 0.5 µg/mL (≈ 0.905 µM)
MIC [37]: 0.5 µg/mL (≈ 0.905 µM)
MIC (Streptococcus pneumoniae [38]): 32 µg/mL
MIC [39]: 0.5 µg/mL (≈ 0.905 µM)
IC50 (Dihydrofolate reductase): 0.0226 µM
MIC (Staphylococcus aureus [40]): 0.5 µg/mL (≈ 0.905 µM)
MIC (Enterococcus faecalis [41]): ≤ 0.25 µg/mL
MIC (Streptococcus pneumoniae [42]): ≥ 128 µg/mL
Activity (Staphylococcus aureus [43]): Active
Activity (Mus musculus [44]): < 10%
AUC(0-t) at 7 h [45]: 10600 ng·h/mL
MIC (Enterococcus faecalis [46]): ≤ 0.25 µg/mL
MIC (Staphylococcus aureus [47]): < 0.25 µg/mL
MIC (Haemophilus influenzae [48]): > 128 µg/mL
MIC (Haemophilus influenzae [49]): 64 µg/mL
Tmax [50]: 30 min
MIC (Haemophilus influenzae [51]): 32 µg/mL
